In US11260083B2, “Compositions and methods for treating and preventing graft versus host disease” (The Regents of the University of Michigan, priority 2016, dated 2022):

Columns and labels:
[1] = system: C3H.SW (H-2b) → C57BL/6J (H-2b) BMT recipients; test: MHC-matched, minor antigen mismatched BMT model with butyrate; format: in vivo, mouse
Protocol: BMTs were performed as previously described (Reddy, P. et al. A crucial role for antigen-presenting cells and alloantigen expression in graft-versus-leukemia responses. Nat. Med. 11, 1244-1249 (2005); 15). Briefly, syngeneic (BALB/c→BALC/c or C57BL/6J→C57BL/6J) and allogeneic (C57BL/6J→BALB/c or C3H.sw→C57BL/6J) recipients received lethal irradiation. On day −1, BALB/c recipients received a total of 800 cGy of irradiation (split dose separated by 3 hours) and B6 animals received a single dose of 1000 cGy. […] Survival was monitored daily and the recipient body weight and GVHD clinical scores were determined weekly, as described previously42. […]
Systemic administration of HDACi decreases acute GVHD (Reddy, P. et al. Histone deacetylase inhibitor suberoylanilide hydroxamic acid reduces acute graft-versus-host disease and preserves graft-versus-leukemia effect. Proc Natl Acad Sci USA 101, 3921-3926 (2004); Reddy, P. et al. Histone deacetylase inhibition modulates indoleamine 2,3-dioxygenasedependent DC functions and regulates experimental graft-versus-host disease in mice. J. Clin. Invest. 118, 2562-2573 (2008); Sun, Y. et al. Cutting edge: Negative regulation of dendritic cells through acetylation of the nonhistone protein STAT-3. J Immunol 182, 5899-5903 (2009)). It was therefore determined if increasing local levels of endogenous HDACi, butyrate, would impact GVHD severity. […]

[2] = system: allogeneic (C57BL/6J→BALB/c) BMT recipients; test: Allo-BMT with Treg-depleted donor T cells (CD4+CD25− or DREG + DT) and butyrate; format: in vivo, mouse
Protocol: (§1) To further determine whether the salutary effects of local treatment with butyrate on GI GVHD were dependent on donor Treg cells, a BMT was performed utilizing the same HC mismatched BMT model in which C57BL/6J (H-2b) cells are transferred to Balb/c (H-2d) mice. T cell-depleted (TCD) bone marrow was transplanted and purified CD4+CD25− T cells from donors. Vehicle or butyrate was administered to the recipients daily for 1 week, then every other day thereafter as above. […]. J. Exp. Med. 204, 57-63 (2007); Lahl, K. & Sparwasser, T. In vivo depletion of FoxP3+ Tregs using the DEREG mouse model. […]. The Treg depleted T cells were then used as donor cells in the major MHC mismatch model used above. […] To further examine whether the local administration of butyrate impacted donor T cells directly, the HDAC and HAT enzymatic activity was determined in donor T cells harvested from the recipient animals. Both the HDAC activity or HAT activity in the donor T cells harvested from the recipient spleen were similar between butyrate and vehicle treated allogeneic animals.

HAT = HAT enzymatic activity in donor T cells from recipient spleen; format: in vivo, mouse; settings: butyrate vs vehicle treated allogeneic animals
Protocol: as §1

CD326+ IECs = test: IEC viability assay with or without irradiation (6 Gy); format: cell-based, mouse; settings: ex vivo
Protocol: Primary intestinal epithelial cells (IECs) were obtained from C57BL/6J mice as described previously (Lefrangois, L. & Lycke, N. Isolation of Mouse Small Intestinal Intraepithelial Lymphocytes, Peyer's Patch, and Lamina Propria Cells. (John Wiley & Sons, Inc., 2001)). Briefly, luminal contents of intestine were flushed with CMF solution. Intestine was then minced into 0.5 cm pieces, washed with CMF four times, transferred to CMF/FBS/EDTA, and incubated at 37° C. for 60 minutes (shaking tubes every 10 minutes). Supernatant containing IECs was then transferred through […] cell filter followed by incubation on ice for 10 minutes to allow sedimentation. Supernatant was again transferred through a 75 μM cell filter. CD326+ IECs were next purified utilizing either FACS or anti-APC magnetic microbeads (Miltenyi Biotec Ltd., Auburn, Calif.) and an autoMACs (Miltenyi Biotec). […]
The potential mechanisms that contribute to butyrate-induced protection from severe GVHD were explored. […] The ability of butyrate-treated IECs to withstand damage mediated by alloreactive T cells was determined by isolating and culturing primary IECs with butyrate or vehicle control, overnight. […] Because butyrate is a primary energy source for IECs 1-13, it was next determined whether butyrate enhances survival and growth of IECs in vitro. […]

[3] = Treg depleted (DREG + DT) donor T cells

With `CCCC(=O)[O-].[Na+]` [butyrate, sodium butyrate] the “histological scores in both the intestines and liver” value ([1]; 21 days following BMT, minor antigen mismatch) was “decreased histological scores”, the survival ([1]; minor antigen mismatched model) was “improved survival” and the GVHD ([2]; TCD bone marrow and purified CD4+CD25− donor T cells) was “Decreased GVHD”. The “clinical GVHD” value [2, 3] was “Significantly improved clinical GVHD”, the survival [2, 3] was “improved survival” and the weight loss [2, 3] was “less weight loss”. The “HAT activity in donor T cells” value (HAT) was “similar”, the “irradiation-induced apoptosis of IECs” value (CD326+ IECs; irradiation 6 Gy) was “conferred protection” and the “toxicity to IECs” value (CD326+ IECs; no irradiation) was “not toxic”.
